Biological target: T1, sEH (Mus musculus, UniProt P34914)
T1 construct: pilot in vivo study of the compound in male wild-type C57BL6/J mice; from tissue; host or cells: male wild-type C57BL/6J mice, in vivo; read-out in plasma
T1 sequence (P34914 1-554): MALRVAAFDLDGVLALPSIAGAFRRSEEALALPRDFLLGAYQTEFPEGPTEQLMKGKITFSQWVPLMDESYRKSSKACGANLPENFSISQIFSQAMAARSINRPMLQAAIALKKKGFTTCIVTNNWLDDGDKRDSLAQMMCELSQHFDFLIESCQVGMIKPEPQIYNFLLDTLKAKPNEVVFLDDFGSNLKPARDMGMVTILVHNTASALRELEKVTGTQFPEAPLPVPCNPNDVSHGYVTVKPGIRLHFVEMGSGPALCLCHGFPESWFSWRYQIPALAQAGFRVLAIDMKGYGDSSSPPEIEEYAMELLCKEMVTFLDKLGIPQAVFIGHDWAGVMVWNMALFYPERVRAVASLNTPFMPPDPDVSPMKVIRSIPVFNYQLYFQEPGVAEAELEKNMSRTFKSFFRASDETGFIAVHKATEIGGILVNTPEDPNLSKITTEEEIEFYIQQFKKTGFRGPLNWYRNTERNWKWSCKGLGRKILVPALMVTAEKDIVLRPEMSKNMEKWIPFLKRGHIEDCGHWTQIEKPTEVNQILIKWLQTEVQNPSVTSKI
Assay: EET/DHET ratio in mouse plasma
Type: in vivo
Conditions: mice, 10 mg/kg p.o., 8 h post dose
Experimental: To record a pharmacokinetic profile and to evaluate pharmacodynamic data concerning FXR activation and sEH inhibition in vivo, six mice received a single dose of 57 (p.o., 10 mg/kg body weight). Three additional animals served as vehicle control.
To evaluate pharmacodynamic effects of 57, mouse plasma was analyzed for EET/DHET ratio, and FXR target gene expression was determined in mouse livers 8 hours post application (FIG. 5B). […] Expression of the PPARγ target gene fatty acid transport protein (FATP) was not affected by 57 in vivo.
Blood and liver sampling: At six time points (15 min, 30 min, 60 min, 120 min, 240 min and 480 min after application of 57), blood (20 μl) of the six restrained and conscious mice was obtained from the lateral tail vein. For the last time-point (480 min), mice were anesthetized under isoflurane and blood (˜500 μl) was obtained by retro-orbital puncture. A part of the blood was centrifuged (6000 rpm, 10 min, +4° C.) to obtain plasma for quantification of EET/DHET ratio and stored at −80° C. until further evaluation. […]
EET/DHET ratio analysis from mouse plasma samples (Determination of Epoxyeicosatrienoicacids (EETs) and their metabolites Dihydroxyepoxyeicosatrienoicacids (DHETs) by LCMS/MS): 8.9-EET, 11.12-EET and their dehydro-metabolites content of the extracted samples were analyzed employing liquid chromatography tandem mass spectroscopy (LC-MS/MS). […]

SMILES: CC(C)(C)c1ccc(C(=O)NCc2ccc(NS(C)(=O)=O)cc2Cl)cc1 [compound 57, 4-(tert-Butyl)-N-(2-chloro-4-(methylsulfonamido)benzyl)benzamide]
- 11,12-EET/11,12-DHET ratio in plasma (vehicle 0.15±0.01): 0.25±0.03
- 8,9-EET/8,9-DHET ratio in plasma (vehicle 0.40±0.03): 0.63±0.03
